According to patent US9375388B2, “Nanoparticle based cosmetic composition” (Indian Institute of Technology, priority 2011, dated 2016):

Experiment: Confocal laser scanning microscopy of skin penetration of dye
Format: in vitro ADME
Conditions: CLSM of rat skin, calcein dye (FIG. 2)
Source text: FIG. 2. CLSM image of rat skin: without calcein dye under (a) calcein filter (b) bright field; with free calcein solution under (c) calcein filter (d) bright field; with calcein-loaded SPC liposomes under (e) calcein filter (f) bright field.

In the case of O=C(O)CN(CC(=O)O)Cc1cc2c(cc1O)Oc1cc(O)c(CN(CC(=O)O)CC(=O)O)cc1C21OC(=O)c2ccccc21 [free dye, calcein], the “Penetration of dye through skin” value is reported as “visible only at the surface of the skin and around the hair follicles”.
